Target: T1, ATR kinase (Homo sapiens, UniProt Q13535)
T1 construct: Assays were carried out at 25° C. in the presence of 5 nM full-length ATR
Assay: ATR Inhibition Assay (radioactive-phosphate incorporation)
Type: biochemical
Conditions: Ki(app); 5 nM full-length ATR, 10 μM ATP, 800 μM target peptide, 25° C.
Description: Compounds were screened for their ability to inhibit ATR kinase using a radioactive-phosphate incorporation assay. Assays were carried out in a mixture of 50 mM Tris/HCl (pH 7.5), 10 mM MgCl2 and 1 mM DTT. Final substrate concentrations were 10 μM [γ-33P]ATP (3 mCi 33P ATP/mmol ATP, Perkin Elmer) and 800 μM target peptide (ASELPASQPQPFSAKKK).
Assays were carried out at 25° C. in the presence of 5 nM full-length ATR. An assay stock buffer solution was prepared containing all of the reagents listed above, with the exception of ATP and the test compound of interest. 13.5 μL of the stock solution was placed in a 96 well plate followed by addition of 2 μL of DMSO stock containing serial dilutions of the test compound (typically starting from a final concentration of 15 μM with 3-fold serial dilutions) in duplicate (final DMSO concentration 7%). The plate was pre-incubated for 10 minutes at 25° C. and the reaction initiated by addition of 15 μL [γ-33P]ATP (final concentration 10 μM).
The reaction was stopped after […] by the addition of 300 μL 0.1M phosphoric acid containing 2 mM ATP. […]
After removing mean background values for all of the data points, Ki(app) data were calculated from non-linear regression analysis of the initial rate data using the Prism software package (GraphPad Prism version 3.0cx for Macintosh, GraphPad Software, San Diego Calif., USA).

T1 sequence (Q13535 whole entry): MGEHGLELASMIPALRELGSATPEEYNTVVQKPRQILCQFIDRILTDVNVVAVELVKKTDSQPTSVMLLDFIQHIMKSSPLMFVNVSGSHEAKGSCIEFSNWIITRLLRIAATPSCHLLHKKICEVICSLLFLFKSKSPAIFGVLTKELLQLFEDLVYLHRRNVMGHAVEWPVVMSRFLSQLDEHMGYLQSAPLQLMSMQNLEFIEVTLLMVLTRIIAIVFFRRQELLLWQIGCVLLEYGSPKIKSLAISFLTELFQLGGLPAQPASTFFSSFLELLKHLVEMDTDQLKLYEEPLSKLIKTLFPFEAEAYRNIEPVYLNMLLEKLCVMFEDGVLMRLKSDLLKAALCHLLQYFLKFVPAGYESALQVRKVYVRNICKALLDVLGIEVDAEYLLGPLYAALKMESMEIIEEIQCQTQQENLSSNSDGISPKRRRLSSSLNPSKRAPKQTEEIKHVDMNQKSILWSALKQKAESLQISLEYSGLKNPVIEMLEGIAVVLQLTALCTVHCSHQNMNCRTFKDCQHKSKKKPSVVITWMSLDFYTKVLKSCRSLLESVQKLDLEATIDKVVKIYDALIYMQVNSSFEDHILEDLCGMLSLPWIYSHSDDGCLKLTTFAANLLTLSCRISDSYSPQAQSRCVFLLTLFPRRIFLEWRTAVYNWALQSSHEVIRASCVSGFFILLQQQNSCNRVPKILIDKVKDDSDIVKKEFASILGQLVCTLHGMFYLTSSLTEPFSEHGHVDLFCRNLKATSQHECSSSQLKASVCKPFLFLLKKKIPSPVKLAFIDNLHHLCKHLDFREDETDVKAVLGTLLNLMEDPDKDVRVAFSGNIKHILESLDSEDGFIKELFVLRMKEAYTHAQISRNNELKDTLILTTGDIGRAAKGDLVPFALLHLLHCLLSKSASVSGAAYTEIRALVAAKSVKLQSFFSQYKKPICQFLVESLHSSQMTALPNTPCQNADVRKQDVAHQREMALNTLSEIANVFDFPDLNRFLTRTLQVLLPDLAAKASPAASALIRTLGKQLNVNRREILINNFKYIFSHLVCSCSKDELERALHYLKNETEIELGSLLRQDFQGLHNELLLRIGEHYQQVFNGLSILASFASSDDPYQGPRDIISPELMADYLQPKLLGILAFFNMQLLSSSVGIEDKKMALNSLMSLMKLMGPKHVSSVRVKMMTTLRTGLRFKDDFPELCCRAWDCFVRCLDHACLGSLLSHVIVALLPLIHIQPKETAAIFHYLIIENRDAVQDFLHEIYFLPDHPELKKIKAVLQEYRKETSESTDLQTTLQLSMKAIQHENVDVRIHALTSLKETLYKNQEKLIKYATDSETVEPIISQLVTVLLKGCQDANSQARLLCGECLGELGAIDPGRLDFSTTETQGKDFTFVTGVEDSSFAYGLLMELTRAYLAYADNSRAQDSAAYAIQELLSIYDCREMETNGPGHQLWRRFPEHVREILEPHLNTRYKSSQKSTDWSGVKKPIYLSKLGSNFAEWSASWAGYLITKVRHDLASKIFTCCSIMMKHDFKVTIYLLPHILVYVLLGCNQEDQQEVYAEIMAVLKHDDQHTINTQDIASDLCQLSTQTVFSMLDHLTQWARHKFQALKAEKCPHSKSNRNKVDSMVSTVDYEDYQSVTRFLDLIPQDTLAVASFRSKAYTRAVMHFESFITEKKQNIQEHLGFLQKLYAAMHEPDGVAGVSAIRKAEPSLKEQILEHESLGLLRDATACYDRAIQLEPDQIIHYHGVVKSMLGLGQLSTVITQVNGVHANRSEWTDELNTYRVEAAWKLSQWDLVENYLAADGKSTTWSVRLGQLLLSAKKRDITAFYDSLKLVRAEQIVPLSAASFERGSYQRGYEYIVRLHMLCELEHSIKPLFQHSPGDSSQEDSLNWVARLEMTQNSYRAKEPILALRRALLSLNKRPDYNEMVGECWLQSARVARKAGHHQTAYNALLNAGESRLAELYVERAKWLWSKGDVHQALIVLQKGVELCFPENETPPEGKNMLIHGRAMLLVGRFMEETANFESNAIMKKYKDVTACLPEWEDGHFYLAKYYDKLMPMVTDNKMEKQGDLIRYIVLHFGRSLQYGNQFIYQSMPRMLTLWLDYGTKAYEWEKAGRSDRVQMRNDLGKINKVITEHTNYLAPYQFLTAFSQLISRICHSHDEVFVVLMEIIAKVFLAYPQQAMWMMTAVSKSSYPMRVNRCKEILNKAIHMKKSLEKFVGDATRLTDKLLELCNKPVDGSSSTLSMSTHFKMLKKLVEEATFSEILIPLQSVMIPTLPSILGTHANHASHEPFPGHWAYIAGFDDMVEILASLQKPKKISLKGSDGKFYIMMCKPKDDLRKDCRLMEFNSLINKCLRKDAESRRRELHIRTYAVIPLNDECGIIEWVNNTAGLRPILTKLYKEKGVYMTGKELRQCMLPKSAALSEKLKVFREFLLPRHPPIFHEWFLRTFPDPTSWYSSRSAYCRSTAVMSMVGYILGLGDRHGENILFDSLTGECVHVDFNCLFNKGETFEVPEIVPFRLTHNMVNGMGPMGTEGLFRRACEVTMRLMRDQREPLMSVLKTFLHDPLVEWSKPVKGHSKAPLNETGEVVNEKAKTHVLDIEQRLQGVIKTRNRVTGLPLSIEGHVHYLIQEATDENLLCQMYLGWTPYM

Compound | Ki [nM]
2-(4-(5-amino-6-(4-iodo-3-(4-(((tetrahydro-2H-pyran-4-yl)amino)methyl)phenyl)isoxazol-5-yl)pyrazin-2-yl)pyridin-2-yl)-2-methylpropanenitrile [Compound I-2] | 90
CC(C)S(=O)(=O)c1ccc(-c2cnc(N)c(-c3onc(-c4ccc(CNC5CCOCC5)cc4)c3I)n2)cc1 [Compound I-1, 3-(4-iodo-3-(4-(((tetrahydro-2H-pyran-4-yl)amino)methyl)phenyl)isoxazol-5-yl)-5-(4-(isopropylsulfonyl)phenyl)pyrazin-2-amine] | 16
